Experiment [1] deals with Male and female Balb/cJ mice. The experiment in a line: Hair regrowth on shaved dorsal skin of mice after topical treatment. The class given is in vivo. On the procedure: Hair regrowth was monitored daily. […] The hair length was measured by digital pachymeter.
Drug administration bpV(pic) (Sigma Aldrich, San Louis, MO, USA) was reconstituted in sterile Milli-Q water. bpV(pic) was also used to prepare a 10 μM bpV(pic) gel using 2% carmellose gel base (vehicle). bpV(pic) or vehicle gel was topically applied to the skin twice a day.
The dorsal skin of male and female mice was shaved and treated with vehicle or bpV (pic) topically, twice a day for 21 days (FIG. 1A).
The dorsal skin of male and female mice was shaved and treated with vehicle or SF1670 (N-(9,10-Dioxo-9,10-dihydro-phenanthren-2-yl)-2,2-dimethylpropionamide, N-(9,10-dihydro-9,10-dioxo-2-phenanthrenyl)-2,2-dimethyl-propanamide) topically, twice a day for 5 weeks. Hairs were collected once a week and measured using a millimeter (mm) as the measurement unit.

In experiment [2] the test system is proliferative cells in the hair follicle and interfollicular epidermis. As to conditions: after 10 days, BrdU positive cells per field. On the procedure:
BrdU labeling and cell proliferation BrdU (10 mg/ml) was injected in mice via IP two hours previous to the euthanasia. Tissue was collected and processed. The tissue was placed on slides and deparaffinized in xylene substitute and hydrated in descending grades of ethanol. Antigen retrieval was performed by HCL at 37° C. for 1 hour. Anti-BrdU (1:200, Novus Biologicals, Centennial, CO) was incubated overnight at 4° C., followed by secondary antibody conjugated with Alexa 488 incubation and counterstaining with Hoechst 33342. All slides were mounted using Fluoroshield. For quantification, ten fields were captured at a magnification of x400. The images were analyzed using ImageJ (NIH, Bethesda, MD, USA), and the proliferation was expressed as the number of positive cells per field.
(§1) Skin samples were taken from treated and vehicle control mice and stained to evaluate skin histomorphology. Hair follicle cycle was evaluated by morphology and divided into 3 phases: growth phase (anagen); regression phase (catagen); and telogen. […] Proliferative cells in the hair follicle (follicular) and interfollicular epidermis (Interfollicular) were quantified for the identified timepoints.

In experiment [3] the test system is Human epidermal keratinocytes (HEK). As to conditions: HEK monolayer, 48 hrs treatment (FIG. 3D). On the procedure: (§2) Flow cytometry analysis Isolation of skin single-cell suspension. Briefly, the subcutis underlying the dorsal skin was removed, and the epithelial cell layer was trypsinized for 2 hours at 37° C. Epithelial cell suspensions were filtered through 70 μm mesh filters (BD Bioscience, San Jose, CA, USA) to achieve a single cell suspension. Cells were maintained on ice. Immunofluorescence staining for CD34-FITC and CD49f-P.E./Cye5 primary antibodies (BD Pharmingen, San Jose, CA, USA) was performed to detected hair follicle stem cells. Antibodies were incubated with the cells for 30 minutes at 4° C. after cells were incubated with FcR blocking reagent (Miltenyi Biotec, Bergisch Gladbach, Germany). Human epidermal keratinocytes (HEK) (Cell Applications, Inc., San Diego, CA) were cultured in Epi-Vita Growth Medium (Cell Applications, Inc., San Diego, CA) and maintained at 37° C. with 5% of CO2 in a humidified incubator. Human epidermal keratinocytes (HEK) were cultured in a monolayer following instructions for culture of primary cells and received BpV(pic) or vehicle for 48 hrs. Treated cells were trypsinized and stained for CD44-APC (BD Pharmingen, San Jose, CA, USA) and Aldefluor kit (StemCell Technologies, Durham, NC, USA) according to the manufacturer's instructions to detected aldehyde dehydrogenase (ALDH) enzymatic activity. […]

In a further experiment the test system is hair follicle stem cells. As to conditions: treated mice, FACS (FIGS. 3B-3C). On the procedure: as §2
The test system of a further experiment is hair follicles. As to conditions: skin samples of treated mice, H&E (FIG. 2A). On the procedure:
as §1

Turning to `CC(C)(C)C(=O)Nc1ccc2c(c1)C(=O)C(=O)c1ccccc1-2` [SF1670, N-(9,10-Dioxo-9,10-dihydro-phenanthren-2-yl)-2,2-dimethylpropionamide], the “hair regrowth (hair length) compared to vehicle control” value in experiment [1] (topically twice a day for 5 weeks, hairs measured once a week (FIG. 4)) is reported as “faster hair regrowth”.

In the case of `O=C([O-])c1ccccn1.[K+].[K+].[O-2].[O-][O-].[O-][O-].[V+5]` [bpV(pic), dipotassium bisperoxo(pyridine-2-carboxyl)oxovanadate], in experiment [2], the “proliferative cells in the hair follicle (follicular) versus vehicle control” value is given as “increased” and the “proliferative cells in the interfollicular epidermis versus vehicle control” value was “increased”. Besides, the “stem cell number in human stem cells compared to vehicle control” value in experiment [3] is given as “confirmed”. Moreover, in the experiment on hair follicle stem cells, the “number of hair follicle stem cells compared to vehicle control” value is “increased”. Besides, the “hair regrowth (hair length) in comparison to the vehicle control” value in experiment [1] (10 μM gel topically twice a day for 21 days, shaved dorsal skin, all subjects (FIG. 1B)) is recorded as “induced hair regrowth”. Further, the “hair follicle cycle phase by morphology” value with hair follicles was “anagen phase”.
